These results are taken from patent US5104870A, “Heterocyclic pharmaceutical compounds and use” (Burroughs Wellcome Co., priority 1989, dated 1992).

The test system of the test is tetrabenazine-induced sedation. The test is described as follows: Antitetrabenazine test (prevention of tetrabenazine-induced sedation). In kind it is in vivo. Particulars: Mus musculus, ip; CDl male mice; i.p. as hydrochloride salt in saline 30 min before tetrabenazine hydrochloride 35 mg/kg i.p.; exploratory behavior scored 30 min later; read-out: ED50 (amount of the test compound required to reverse the tetrabenazine effects in 50 percent of the animals tested). As for the experimental part: Prevention on of tetrabenazine-induced sedation was measured using a modification of the method of Vernier et al., First Hahnemann Symposium on Psychosomatic Medicine, ed. Nodim and Moyer, pub Lea and Febiger, Philadelphia. 1962.
Mice, groups of 12 CDl males each, were injected intraperitoneally (i.p.) with the hydrochloride salt of a compound of formula (I) in physiological saline solution or with physiological saline solution alone. Thirty minutes later each of the mice was injected (i.p.. 35 mg/kg) with a solution of tetrabenazine hydrochloride. Thirty minutes after the injection of tetrabenazine each mouse was examined for its level of exploratory behavior which was scored on a modification of the arbitrary scale defined by Vernier et al The result reported in Table I as the ED50 value is the amount of the test compound required to reverse the tetrabenazine effects in 50 percent of the animals tested.

Counter-ions that a name gives are not always drawn.

What is called ED50 is the dose at which the effect has come halfway, by size or by number of responders. Consider `C[C@@H]1CO[C@@](O)(c2cc(F)cc(F)c2)[C@H](C)N1C` [Example 3, (2S,3S,5R)-2-(3.5.Difluorophenyl)-3,4,5,trimethyl-2-morpholinol hydrochloride, one-quarter hydrate], for which the 50% effective dose (ED50) was found to be 0.6 mg/kg.

Consider `C[C@H]1CO[C@](O)(c2cc(F)cc(F)c2)[C@@H](C)N1.Cl` (relative stereo) [Example 1, (+-)-(2R*,3R*,5S*)-2-(3,5-Difluorophenyl)-3,5-dimethyl-2-morpholinol hydrochloride], for which the ED50 was 2 mg/kg.

Turning to `CCN1[C@H](C)CO[C@@](O)(c2cc(F)cc(F)c2)[C@@H]1C` [Example 5, (2S,3S,5R)-2-(3,5-Difluorophenyl)-4-ethyl-3,5-dimethyl-2-morpholinol hydrochloride, monohydrate], the ED50 was found to be 3 mg/kg.

On to `C[C@@H]1CO[C@@](O)(c2cc(F)cc(F)c2)[C@H](C)N1.Cl` [Example 2, (2S,3S,5R)-2-(3,5-difluorophenyl)-3,5-dimethyl-2-morpholinol hydrochloride], for which the ED50 is 5 mg/kg.

As for `C[C@@H]1CO[C@@](O)(c2cc(F)cc(F)c2)[C@H](C)N1C` (relative stereo) [Example 4, (+-)-(2R*,3R*,5S*)-2-(3,5-Difluorophenyl)-3,4,5,trimethyl-2-morpholinol hydrochloride], the ED50 worked out at 3 mg/kg.
